Calls of active or inactive are those of the source. The rule behind the calls is not given here.
Experiments:
[1] = system: Mus musculus; assay: Anticonvulsant activity in ip dosed CF1 albino mouse assessed as prevention of subcutaneous pentylenetetrazole-induced seizure after 0.5 hrs; assay type: functional
[2] = system: Mus musculus; assay: Neurotoxicity in ip dosed CF1 albino mouse after 0.5 hrs by rotarod test; assay type: toxicity, organism-based; conditions: in vivo
[3] = system: Mus musculus; assay: Neurotoxicity in ip dosed CF1 albino mouse after 4 hrs by rotarod test; assay type: toxicity, organism-based; conditions: in vivo
[4] = system: Mus musculus; assay: Anticonvulsant activity in ip dosed CF1 albino mouse assessed as prevention of maximal electroshock-induced seizures after 0.5 hrs; assay type: functional
[5] = system: Mus musculus; assay: Anticonvulsant activity in CF1 albino mouse assessed as prevention of subcutaneous pentylenetetrazole-induced seizure at 300 mg/kg, ip after 4 hrs; assay type: functional, organism-based; set-up: dose 300 mg/kg
[6] = system: Mus musculus; assay: Anticonvulsant activity in CF1 albino mouse assessed as prevention of maximal electroshock-induced seizures at 300 mg/kg, ip after 4 hrs; assay type: functional, organism-based; set-up: dose 300 mg/kg
[7] = system: Mus musculus; assay: Anticonvulsant activity in CF1 albino mouse assessed as prevention of subcutaneous pentylenetetrazole-induced seizure at 300 mg/kg, ip after 0.5 hrs; assay type: functional, organism-based; set-up: dose 300 mg/kg
[8] = system: Rattus norvegicus; assay: Sedative-hypnotic effect in Sprague-Dawley albino rat assessed as increase in sleep time at 100 mg/kg, ip by phenobarbitone-induced hypnosis test; assay type: functional; conditions: route intraperitoneal
[9] = system: Mus musculus; assay: Anticonvulsant activity in ip dosed CF1 albino mouse assessed as prevention of maximal electroshock-induced seizures after 4 hrs; assay type: functional
[10] = system: Mus musculus; assay: Anticonvulsant activity in CF1 albino mouse assessed as prevention of maximal electroshock-induced seizures at 300 mg/kg, ip after 0.5 hrs; assay type: functional, organism-based; set-up: dose 300 mg/kg

SMILES: NC(=O)N1c2ccccc2C=Cc2ccccc21 [CARBAMAZEPINE]
- Activity [1]: 100 mg/kg
- Activity [2]: 100 mg/kg
- Activity [3]: 300 mg/kg
- Activity [4]: 30 mg/kg
- Activity [5]: inactive
- Activity [6]: inactive

SMILES: N=c1snc(Nc2ccccn2)n1-c1ccccn1
- Activity [2]: 100 mg/kg
- Activity [3]: 300 mg/kg
- Activity [4]: 300 mg/kg
- Activity [5]: inactive
- Activity [7]: inactive
- Activity [6]: inactive

SMILES: CCOc1ccc(-n2c(N)nsc2=N)cc1
- Activity [8]: 46.8%
- Activity [2]: 100 mg/kg
- Activity [4]: 100 mg/kg
- Activity [5]: inactive
- Activity [7]: inactive
- Activity [6]: inactive

SMILES: O=C1NC(=O)C(c2ccccc2)(c2ccccc2)N1 [PHENYTOIN]
- Activity [2]: 100 mg/kg
- Activity [3]: 100 mg/kg
- Activity [4]: 30 mg/kg
- Activity [5]: inactive
- Activity [7]: inactive
- Activity [9]: 100 mg/kg

SMILES: N=c1snc(Nc2ccc(F)cc2)n1-c1ccc(F)cc1
- Activity [8]: 5.1%
- Activity [2]: 300 mg/kg
- Activity [4]: 100 mg/kg
- Activity [5]: inactive
- Activity [7]: inactive
- Activity [9]: 300 mg/kg

SMILES: N=c1snc(N)n1-c1cccc2ccccc12
- Activity [8]: 8.8%
- Activity [2]: 300 mg/kg
- Activity [3]: 300 mg/kg
- Activity [4]: 30 mg/kg
- Activity [5]: inactive
- Activity [7]: inactive
- Activity [6]: inactive

SMILES: N=c1snc(N)n1-c1cccnc1
- Activity [2]: 100 mg/kg
- Activity [4]: 300 mg/kg
- Activity [5]: inactive
- Activity [7]: inactive
- Activity [6]: inactive

SMILES: CCOc1ccc(Nc2nsc(=N)n2-c2ccc(OCC)cc2)cc1
- Activity [8]: 55.6%
- Activity [1]: 300 mg/kg
- Activity [2]: 300 mg/kg
- Activity [4]: 30 mg/kg
- Activity [5]: inactive
- Activity [9]: 300 mg/kg

SMILES: N=c1snc(N)n1-c1ccc(Br)cc1
- Activity [4]: 300 mg/kg
- Activity [5]: inactive
- Activity [7]: inactive
- Activity [6]: inactive

SMILES: COc1ccc(-n2c(N)nsc2=N)cc1
- Activity [4]: 300 mg/kg
- Activity [5]: inactive
- Activity [7]: inactive
- Activity [6]: inactive

SMILES: N=c1snc(Nc2ncccn2)n1-c1ncccn1
- Activity [8]: 11.4%
- Activity [2]: 100 mg/kg
- Activity [4]: 100 mg/kg
- Activity [5]: inactive
- Activity [7]: inactive
- Activity [6]: inactive

SMILES: N=c1snc(N)n1-c1ccc(Cl)cc1
- Activity [2]: 100 mg/kg
- Activity [4]: 300 mg/kg
- Activity [5]: inactive
- Activity [7]: inactive
- Activity [6]: inactive

SMILES: N=c1snc(N)n1-c1ccncc1
- Activity [2]: 100 mg/kg
- Activity [4]: 300 mg/kg
- Activity [5]: inactive
- Activity [7]: inactive
- Activity [6]: inactive

SMILES: N=c1snc(N)n1-c1ccccn1
- Activity [2]: 100 mg/kg
- Activity [4]: 300 mg/kg
- Activity [5]: inactive
- Activity [7]: inactive
- Activity [6]: inactive

SMILES: N=c1snc(Nc2cccnc2)n1-c1cccnc1
- Activity [2]: 100 mg/kg
- Activity [4]: 300 mg/kg
- Activity [5]: inactive
- Activity [7]: inactive
- Activity [6]: inactive

SMILES: N=c1snc(Nc2ccncc2)n1-c1ccncc1
- Activity [2]: 100 mg/kg
- Activity [4]: 300 mg/kg
- Activity [5]: inactive
- Activity [7]: inactive
- Activity [6]: inactive

SMILES: N=c1snc(N)n1-c1ccc(F)cc1
- Activity [8]: 20.2%
- Activity [2]: 100 mg/kg
- Activity [4]: 100 mg/kg
- Activity [5]: inactive
- Activity [7]: inactive
- Activity [9]: 300 mg/kg

SMILES: N=c1snc(Nc2cccc3ccccc23)n1-c1cccc2ccccc12
- Activity [8]: 16.4%
- Activity [2]: 300 mg/kg
- Activity [4]: 30 mg/kg
- Activity [5]: inactive
- Activity [7]: inactive
- Activity [9]: 300 mg/kg

SMILES: N=c1snc(N)n1-c1ncccn1
- Activity [2]: 100 mg/kg
- Activity [5]: inactive
- Activity [7]: inactive
- Activity [10]: inactive
- Activity [6]: inactive
